Measurements: PubChem BioAssay AID2060495 (Molecular Pharmacology Branch, DTP, NCI, 2025)
pIC50: −log10 of the molar value.

Test system: 521955-158-R2-J5-PDC complex spheroid viability
Assay: Anticancer human tumor 521955-158-R2-J5-PDC patient-derived pancreatic carcinoma cell line growth inhibition [GQUAD]
Conditions: for pIC50: curve of first compound; for viability, T/C: stronger effect = lower value; active means viability on the fitted dose curve at most 10% of control; inactive means the rest
Procedure, shortened: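 Viability of tumor cells grown as complex spheroids with endothelial and stromal cells, exposed to drug combinations. Top concentration at or near clinical Cmax (else 10 microM), diluted in half-log increments.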

[1] = second compound 0.0316 µM, first compound 0.0316 µM
[2] = second compound 0.0316 µM, first compound 0.1 µM
[3] = second compound 0.0316 µM, first compound 0.316 µM
[4] = second compound 0.0316 µM, first compound 1 µM
[5] = second compound 0.0316 µM, first compound 3.16 µM
[6] = second compound 0.0316 µM, first compound 10 µM
[7] = second compound 0.1 µM, first compound 0.0316 µM
[8] = second compound 0.1 µM, first compound 0.1 µM
[9] = second compound 0.1 µM, first compound 0.316 µM
[10] = second compound 0.1 µM, first compound 1 µM
[11] = second compound 0.1 µM, first compound 3.16 µM
[12] = second compound 0.1 µM, first compound 10 µM
[13] = second compound 0.316 µM, first compound 0.0316 µM
[14] = second compound 0.316 µM, first compound 0.1 µM
[15] = second compound 0.316 µM, first compound 0.316 µM
[16] = second compound 0.316 µM, first compound 1 µM
[17] = second compound 0.316 µM, first compound 3.16 µM
[18] = second compound 0.316 µM, first compound 10 µM
[19] = second compound 1 µM, first compound 0.0316 µM
[20] = second compound 1 µM, first compound 0.1 µM
[21] = second compound 1 µM, first compound 0.316 µM
[22] = second compound 1 µM, first compound 1 µM
[23] = second compound 1 µM, first compound 3.16 µM
[24] = second compound 1 µM, first compound 10 µM
[25] = second compound 3.16 µM, first compound 0.0316 µM
[26] = second compound 3.16 µM, first compound 0.1 µM
[27] = second compound 3.16 µM, first compound 0.316 µM
[28] = second compound 3.16 µM, first compound 1 µM
[29] = second compound 3.16 µM, first compound 3.16 µM
[30] = second compound 3.16 µM, first compound 10 µM
[31] = second compound 10 µM, first compound 0.0316 µM
[32] = second compound 10 µM, first compound 0.1 µM
[33] = second compound 10 µM, first compound 0.316 µM
[34] = second compound 10 µM, first compound 1 µM
[35] = second compound 10 µM, first compound 3.16 µM
[36] = second compound 10 µM, first compound 10 µM
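Further: spheroids exposed to agents for one week before reading.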
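Wherever viability, T/C is given: 100% = DMSO vehicle control viability.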

CC(=O)O[C@H]1C(=O)[C@@]2(C)[C@H]([C@H](OC(=O)c3ccccc3)[C@]3(O)C[C@H](OC(=O)[C@H](O)[C@@H](NC(=O)c4ccccc4)c4ccccc4)C(C)=C1C3(C)C)[C@]1(OC(C)=O)CO[C@@H]1C[C@@H]2O + CN(C)c1ccc(Nc2c3ccc(NC(=O)CCN4CCCC4)cc3nc3cc(NC(=O)CCN4CCCC4)ccc23)cc1
inactive: viability, T/C [1] 46.1% | viability, T/C [2] 40.9% | viability, T/C [3] 35.2% | viability, T/C [4] 32.3% | viability, T/C [5] 27.5% | viability, T/C [6] 34.7% | viability, T/C [7] 55.7% | viability, T/C [8] 37.6% | viability, T/C [9] 30.8% | viability, T/C [10] 23% | viability, T/C [11] 33.9% | viability, T/C [12] 29.9% | viability, T/C [13] 47.7% | viability, T/C [14] 34.1% | viability, T/C [15] 28% | viability, T/C [16] 22.7% | viability, T/C [17] 29.4% | viability, T/C [18] 33.1% | viability, T/C [19] 54.6% | viability, T/C [20] 33% | viability, T/C [21] 28.3% | viability, T/C [22] 33.9% | viability, T/C [23] 39.4% | viability, T/C [24] 38.5% | viability, T/C [25] 50% | viability, T/C [26] 31.1% | viability, T/C [27] 30.3% | viability, T/C [28] 31.5% | viability, T/C [29] 33.4% | viability, T/C [30] 42% | viability, T/C [31] 50.9% | viability, T/C [32] 35.2% | viability, T/C [33] 36.4% | viability, T/C [34] 27.8% | viability, T/C [35] 29.9% | viability, T/C [36] 35.2%
> 7.50: pIC50 (second compound 0.0316 µM) | pIC50 (second compound 0.316 µM) | pIC50 (second compound 1 µM) | pIC50 (second compound 10 µM)
7.35: pIC50 (second compound 0.1 µM)
7.50: pIC50 (second compound 3.16 µM)

CC[C@@]1(O)C(=O)OCc2c1cc1n(c2=O)Cc2cc3c(CN(C)C)c(O)ccc3nc2-1 + CN(C)c1ccc(Nc2c3ccc(NC(=O)CCN4CCCC4)cc3nc3cc(NC(=O)CCN4CCCC4)ccc23)cc1
7.10: pIC50 (second compound 3.16 µM) | pIC50 (second compound 10 µM)
7.01: pIC50 (second compound 1 µM)
7.06: pIC50 (second compound 0.316 µM)
7.03: pIC50 (second compound 0.1 µM)
6.92: pIC50 (second compound 0.0316 µM)
inactive: viability, T/C (second compound 0.0316 µM, first compound 0.000999 µM) 106% | viability, T/C (second compound 0.0316 µM, first compound 0.00316 µM) 118% | viability, T/C (second compound 0.0316 µM, first compound 0.00999 µM) 110% | viability, T/C [1] 86.7% | viability, T/C (second compound 0.0316 µM, first compound 0.0999 µM) 55.8% | viability, T/C [3] 28.2% | viability, T/C (second compound 0.1 µM, first compound 0.000999 µM) 85.3% | viability, T/C (second compound 0.1 µM, first compound 0.00316 µM) 108% | viability, T/C (second compound 0.1 µM, first compound 0.00999 µM) 95.1% | viability, T/C [7] 82.2% | viability, T/C (second compound 0.1 µM, first compound 0.0999 µM) 48.2% | viability, T/C [9] 41.2% | viability, T/C (second compound 0.316 µM, first compound 0.000999 µM) 101% | viability, T/C (second compound 0.316 µM, first compound 0.00316 µM) 98.5% | viability, T/C (second compound 0.316 µM, first compound 0.00999 µM) 98.7% | viability, T/C [13] 89.4% | viability, T/C (second compound 0.316 µM, first compound 0.0999 µM) 44.3% | viability, T/C [15] 28.6% | viability, T/C (second compound 1 µM, first compound 0.000999 µM) 131% | viability, T/C (second compound 1 µM, first compound 0.00316 µM) 91.6% | viability, T/C (second compound 1 µM, first compound 0.00999 µM) 95.7% | viability, T/C [19] 82.8% | viability, T/C (second compound 1 µM, first compound 0.0999 µM) 43.1% | viability, T/C [21] 24.9% | viability, T/C (second compound 3.16 µM, first compound 0.000999 µM) 101% | viability, T/C (second compound 3.16 µM, first compound 0.00316 µM) 101% | viability, T/C (second compound 3.16 µM, first compound 0.00999 µM) 81.2% | viability, T/C [25] 76.9% | viability, T/C (second compound 3.16 µM, first compound 0.0999 µM) 41.2% | viability, T/C [27] 26.5% | viability, T/C (second compound 10 µM, first compound 0.000999 µM) 63.7% | viability, T/C (second compound 10 µM, first compound 0.00316 µM) 62.3% | viability, T/C (second compound 10 µM, first compound 0.00999 µM) 53.4% | viability, T/C [31] 63.5% | viability, T/C (second compound 10 µM, first compound 0.0999 µM) 45.2% | viability, T/C [33] 31.4%

C=CCn1c(=O)c2cnc(Nc3ccc(N4CCN(C)CC4)cc3)nc2n1-c1cccc(C(C)(C)O)n1 + CN(C)c1ccc(Nc2c3ccc(NC(=O)CCN4CCCC4)cc3nc3cc(NC(=O)CCN4CCCC4)ccc23)cc1
6.68: pIC50 (second compound 0.1 µM) | pIC50 (second compound 1 µM)
6.40: pIC50 (second compound 10 µM)
6.70: pIC50 (second compound 3.16 µM)
6.72: pIC50 (second compound 0.0316 µM)
6.73: pIC50 (second compound 0.316 µM)
active: viability, T/C [35] 7.79% | viability, T/C [36] 1.53%
inactive: viability, T/C [1] 112% | viability, T/C [2] 76.5% | viability, T/C [3] 28.2% | viability, T/C [4] 16.8% | viability, T/C [5] 11.2% | viability, T/C [6] 13.4% | viability, T/C [7] 107% | viability, T/C [8] 85.7% | viability, T/C [9] 29.5% | viability, T/C [10] 15.5% | viability, T/C [11] 14.3% | viability, T/C [12] 12.2% | viability, T/C [13] 82.6% | viability, T/C [14] 80.7% | viability, T/C [15] 24.8% | viability, T/C [16] 11.6% | viability, T/C [17] 14% | viability, T/C [18] 15.2% | viability, T/C [19] 90.5% | viability, T/C [20] 85.2% | viability, T/C [21] 29.5% | viability, T/C [22] 15.9% | viability, T/C [23] 13.4% | viability, T/C [24] 16.2% | viability, T/C [25] 84.6% | viability, T/C [26] 74.4% | viability, T/C [27] 33.7% | viability, T/C [28] 23.3% | viability, T/C [29] 18.6% | viability, T/C [30] 13.5% | viability, T/C [31] 65.1% | viability, T/C [32] 67.6% | viability, T/C [33] 53.3% | viability, T/C [34] 31.6%
